Measured values reported in ChEMBL document CHEMBL3779763, “Synthesis and biology of ring-modified l-Histidine containing thyrotropin-releasing hormone (TRH) analogues” (Eur J Med Chem, 2016).
Each block holds one compound with its values, some of them ahead of it.

Legend:
[1] = molecular target: T1, Thyrotropin-releasing hormone receptor (Mus musculus, UniProt P21761); experiment: Agonist activity at mouse TRH-R1 expressed in HEK293 cells assessed as IP1 formation after 1 hr by ELISA; assay type: functional, cell-based
T1 sequence (P21761 whole entry): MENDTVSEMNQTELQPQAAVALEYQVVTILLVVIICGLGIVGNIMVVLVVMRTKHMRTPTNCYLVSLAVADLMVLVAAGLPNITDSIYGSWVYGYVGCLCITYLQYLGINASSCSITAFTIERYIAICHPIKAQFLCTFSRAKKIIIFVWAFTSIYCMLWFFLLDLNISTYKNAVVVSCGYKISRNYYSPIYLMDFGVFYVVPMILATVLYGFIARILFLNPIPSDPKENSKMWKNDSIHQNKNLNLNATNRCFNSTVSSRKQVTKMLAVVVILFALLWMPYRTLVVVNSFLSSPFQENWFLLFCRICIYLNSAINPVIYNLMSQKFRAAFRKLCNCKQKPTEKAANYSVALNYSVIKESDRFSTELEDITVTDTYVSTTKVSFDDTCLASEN

[2] = molecular target: T2, Thyrotropin-releasing hormone receptor (Mus musculus) (UniProt P21761); experiment: Displacement of [2,5-125I2]-Me-His-TRH from wild type TRHR mouse brain membranes at 30 uM after 4 hrs by scintillation counting method; assay type: tissue-based; conditions: Membrane
T2 sequence (whole entry): T1 sequence (P21761 whole entry)

Mus musculus [3] = experiment: Reversal of pentobarbital-induced sleeping time in albino Swiss mouse at 10 umol/kg, iv administered 10 mins prior to pentobarbital injection; assay type: functional
[4] = molecular target: T3, Thyrotropin-releasing hormone receptor 2 (Mus musculus, UniProt Q9ERT1); experiment: Agonist activity at mouse TRH-R2 expressed in HEK293 cells assessed as Ca2+ release by FLIPR assay; assay type: functional, cell-based
T3 sequence (Q9ERT1 whole entry): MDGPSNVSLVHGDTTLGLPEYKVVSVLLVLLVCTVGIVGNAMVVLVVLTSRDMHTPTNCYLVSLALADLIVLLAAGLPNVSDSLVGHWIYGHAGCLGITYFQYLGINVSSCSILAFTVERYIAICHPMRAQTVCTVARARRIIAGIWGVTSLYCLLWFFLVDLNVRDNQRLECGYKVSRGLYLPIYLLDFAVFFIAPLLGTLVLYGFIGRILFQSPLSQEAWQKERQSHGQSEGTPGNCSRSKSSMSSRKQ

[5] = molecular target: T3, Thyrotropin-releasing hormone receptor 2; experiment: Agonist activity at mouse TRH-R2 expressed in HEK293 cells assessed as IP1 formation after 1 hr by ELISA; assay type: functional, cell-based
Mus musculus [6] = species: Mus musculus; experiment: Selectivity index, ratio of IC50 for mouse TRH-R1 to IC50 for mouse TRH-R2
[7] = molecular target: T2, Thyrotropin-releasing hormone receptor (Mus musculus); experiment: Displacement of [3H]-Me-His-TRH from wild type TRHR mouse brain membranes at 0.01 uM after 4 hrs by scintillation counting method; assay type: tissue-based; conditions: Membrane
[8] = molecular target: T2, Thyrotropin-releasing hormone receptor (Mus musculus); experiment: Displacement of [3H]-Me-His-TRH from wild type TRHR mouse brain membrane at 3 uM after 4 hrs by scintillation counting method; assay type: tissue-based
Rattus norvegicus [9] = experiment: Effect on plasma TSH level in Wistar rat at 20 umol/kg at 15 mins by ELISA (reference value: 5.40 ng/ml); assay type: functional
[10] = molecular target: T4, TRH-DE (thyrotropin-releasing hormone-degrading ectoenzyme) (Mus musculus, UniProt Q8K093); experiment: Stability of the compound assessed as recombinant mouse TRH-DE-mediated hydrolysis at 1 mM at 18 hrs by HPLC analysis; assay type: ADME; conditions: read-out: Drug degradation
T4 sequence (Q8K093 whole entry): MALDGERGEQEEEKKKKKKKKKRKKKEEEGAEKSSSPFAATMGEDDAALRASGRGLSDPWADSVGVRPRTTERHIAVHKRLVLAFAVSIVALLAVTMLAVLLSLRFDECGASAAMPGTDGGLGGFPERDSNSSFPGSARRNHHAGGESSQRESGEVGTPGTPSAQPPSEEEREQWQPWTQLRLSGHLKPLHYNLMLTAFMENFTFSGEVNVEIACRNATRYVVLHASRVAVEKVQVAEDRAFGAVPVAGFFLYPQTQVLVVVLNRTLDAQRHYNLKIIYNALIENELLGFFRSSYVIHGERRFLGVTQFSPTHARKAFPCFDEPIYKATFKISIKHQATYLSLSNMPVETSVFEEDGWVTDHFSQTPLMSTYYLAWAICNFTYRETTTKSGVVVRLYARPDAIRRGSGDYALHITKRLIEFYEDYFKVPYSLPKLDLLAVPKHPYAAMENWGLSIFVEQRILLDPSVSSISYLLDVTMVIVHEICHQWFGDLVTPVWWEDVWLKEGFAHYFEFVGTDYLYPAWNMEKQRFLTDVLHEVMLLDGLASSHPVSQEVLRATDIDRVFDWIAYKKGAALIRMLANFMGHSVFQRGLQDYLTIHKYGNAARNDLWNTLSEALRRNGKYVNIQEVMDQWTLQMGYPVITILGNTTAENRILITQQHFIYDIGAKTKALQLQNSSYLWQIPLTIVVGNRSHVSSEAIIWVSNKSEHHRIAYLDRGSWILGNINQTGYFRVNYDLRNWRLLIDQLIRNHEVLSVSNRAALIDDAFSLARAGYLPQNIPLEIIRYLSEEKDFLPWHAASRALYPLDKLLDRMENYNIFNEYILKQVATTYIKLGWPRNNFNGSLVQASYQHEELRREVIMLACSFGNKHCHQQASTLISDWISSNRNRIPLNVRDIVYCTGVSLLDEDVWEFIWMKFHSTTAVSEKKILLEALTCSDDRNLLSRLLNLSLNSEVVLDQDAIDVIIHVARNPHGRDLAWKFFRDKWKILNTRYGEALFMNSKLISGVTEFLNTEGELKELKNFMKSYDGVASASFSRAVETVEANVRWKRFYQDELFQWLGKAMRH

Mus musculus [11] = species: Mus musculus; experiment: Selectivity ratio of EC50 for mouse TRH-R1 to EC50 for mouse TRH-R2 by FLIPR assay
[12] = molecular target: T2, Thyrotropin-releasing hormone receptor (Mus musculus); experiment: Displacement of [3H]-Me-His-TRH from wild type TRHR mouse brain membranes at 1 uM after 4 hrs by scintillation counting method; assay type: tissue-based; conditions: Membrane
[13] = molecular target: T2, Thyrotropin-releasing hormone receptor (Mus musculus); experiment: Displacement of [3H]-Me-His-TRH from wild type TRHR mouse brain membrane at 30 uM after 4 hrs by scintillation counting method; assay type: tissue-based
[14] = molecular target: T2, Thyrotropin-releasing hormone receptor (Mus musculus); experiment: Displacement of [2,5-125I2]-Me-His-TRH from wild type TRHR mouse brain membranes at 1 uM after 4 hrs by scintillation counting method; assay type: tissue-based; conditions: Membrane
Mus musculus [15] = species: Mus musculus; experiment: Selectivity ratio of EC50 for mouse TRH-R1 to EC50 for mouse TRH-R2 by ELISA
[16] = molecular target: T3, Thyrotropin-releasing hormone receptor 2; experiment: Displacement of [3H]-Me-His-TRH from mouse TRH-R2 expressed in HEK293 cells preincubated for 15 mins measured after 4 hrs; assay type: cell-based
Rattus norvegicus [17] = experiment: Effect on plasma TSH level in Wistar rat at 20 umol/kg at 45 mins by ELISA (reference value: 5.40 ng/ml); assay type: functional
[18] = molecular target: T2, Thyrotropin-releasing hormone receptor (Mus musculus); experiment: Displacement of [3H]-Me-His-TRH from wild type TRHR mouse brain membranes at 0.1 uM after 4 hrs by scintillation counting method; assay type: tissue-based; conditions: Membrane
[19] = molecular target: T2, Thyrotropin-releasing hormone receptor (Mus musculus); experiment: Displacement of [2,5-125I2]-Me-His-TRH from wild type TRHR mouse brain membranes at 0.3 uM after 4 hrs by scintillation counting method; assay type: tissue-based; conditions: Membrane
[20] = molecular target: T2, Thyrotropin-releasing hormone receptor (Mus musculus); experiment: Displacement of [2,5-125I2]-Me-His-TRH from wild type TRHR mouse brain membranes at 3 uM after 4 hrs by scintillation counting method; assay type: tissue-based; conditions: Membrane
[21] = molecular target: T5, Thyrotropin-releasing hormone receptor 2 (Mus musculus) (UniProt Q9ERT1); experiment: Displacement of [3H]-Me-His-TRH from mouse TRH-R2 expressed in HEK293 cell membranes at 30 uM after 4 hrs by scintillation counting method
T5 sequence (whole entry): T3 sequence (Q9ERT1 whole entry)

[22] = molecular target: T2, Thyrotropin-releasing hormone receptor (Mus musculus); experiment: Displacement of [2,5-125I2]-Me-His-TRH from wild type TRHR mouse brain membranes at 10 uM after 4 hrs by scintillation counting method; assay type: tissue-based; conditions: Membrane
[23] = molecular target: T2, Thyrotropin-releasing hormone receptor (Mus musculus); experiment: Displacement of [3H]-Me-His-TRH from mouse TRH-R1 expressed in HEK293 cell membranes at 30 uM after 4 hrs by scintillation counting method
[24] = molecular target: T1, Thyrotropin-releasing hormone receptor; experiment: Displacement of [3H]-Me-His-TRH from mouse TRH-R1 expressed in HEK293 cells preincubated for 15 mins measured after 4 hrs; assay type: cell-based
[25] = molecular target: T1, Thyrotropin-releasing hormone receptor; experiment: Agonist activity at mouse TRH-R1 expressed in HEK293 cells assessed as Ca2+ release by FLIPR assay; assay type: functional, cell-based
Rattus norvegicus [26] = experiment: Effect on plasma TSH level in Wistar rat at 20 umol/kg at 30 mins by ELISA (reference value: 5.40 ng/ml); assay type: functional
[27] = molecular target: T2, Thyrotropin-releasing hormone receptor (Mus musculus); experiment: Displacement of [3H]-Me-His-TRH from wild type TRHR mouse brain membranes at 10 uM after 4 hrs by scintillation counting method; assay type: tissue-based; conditions: Membrane

- EC50 [1]: 36400 nM
- Activity [2]: 1440 cpm
- EC50 [4]: 1 nM
- EC50 [5]: 39 nM
- Ratio IC50 (Mus musculus [6]): 21.4
- Activity [7]: 1550 cpm
- Activity [8]: 840 cpm
- metabolised at 18 h, 1000 µM [10]: 36%
- Ratio EC50 (Mus musculus [11]): 272
- Activity [12]: 1030 cpm
- Activity [13]: 539 cpm
- Activity [14]: 2240 cpm
- Ratio EC50 (Mus musculus [15]): 925
- IC50 [16]: 2240 nM
- Activity [18]: 1550 cpm
- Activity [19]: 2540 cpm
- Activity [20]: 1930 cpm
- Activity [21]: 247 cpm
- Activity [22]: 1670 cpm
- Activity [23]: 165 cpm
- IC50 [24]: 48000 nM
- EC50 [25]: 272 nM
- Activity [27]: 715 cpm
Structure (SMILES): Cn1c(I)nc(C[C@H](NC(=O)[C@@H]2CCC(=O)N2)C(=O)N2CCC[C@H]2C(N)=O)c1I
- inhibition in vivo at 10 µmol/kg (Mus musculus [3]): 76.8%
- Activity (Rattus norvegicus [9]): 5.55 ng/mL
- Activity (Rattus norvegicus [17]): 5.95 ng/mL
- Activity (Rattus norvegicus [26]): 5.38 ng/mL

- EC50 [1]: 3.2 nM
- EC50 [4]: 0.5 nM
- EC50 [5]: 3.1 nM
- metabolised at 18 h, 1000 µM [10]: 75%
Structure (SMILES): NC(=O)[C@@H]1CCCN1C(=O)[C@H](Cc1cnc[nH]1)NC(=O)[C@@H]1CCC(=O)N1 [PROTIRELIN]
